Key:
[1] = solubility and shelf life of substrate in the assay buffer; type: physicochemical
lipoprotein lipase (LPL) = assay: EnzChek substrate fluorescence assay of LPL activity; type: biochemical; details: for increase of LPL activity: over the concentration ranges tested (FIGS. 5A and 5B)
Experimental: In FIG. 1, background substrate hydrolysis was deducted from each measurement, initial rate was plotted against substrate concentration and each data point is the mean of triplicate determinations.
The effects of components that may be present in biological LPL samples and affect the assay were also evaluated and illustrated in FIG. 5. Addition of heparin and calcium increased LPL activity by about 6% over the concentration ranges tested, shown in FIGS. 5A and 5B, while HIS, added from 0-10% decreased the activity by about 12%, shown in FIG. 5C. Addition of NaCl increased the reaction rate, shown in FIG. 5D, with the highest rate, 46% higher than that without salt, occurring at 0.15 M. As NaCl was increased further, the reaction rate dropped, but even at 2.5 M was not reduced to that without NaCl. This implies that there is no inhibition of LPL activity by NaCl if apoC-II is not used in the assay.
The SpectraMax® M2 plate reader and SoftMax® Pro 5 from MDS Analytical Technologies were used for fluorescent measurements. The optimal wavelength was determined to be […] with a 495 nm filter cutoff. The linear capacity of these instruments is up to 2.4 μmol/well. An assay was performed in a black 96-well plate from Costar® in the presence of 0.15 M NaCl, 20 mM Tris-HCl, and 0.0125% Zwittergent® and 1.5% fatty acid free BSA. A 4× working solution was freshly prepared with 0.6 M NaCl, 80 mM Tris-HCl and 6% fatty acid free BSA. The background hydrolysis rate of the substrate was about 1 pmol/min. In the typical assay, the amount of substrate hydrolyzed was less than about 5% of the available substrate.
Enzymatic parameters were calculated using unquenched the BODIPY-C12 probe, the reaction rate in pmol/min was calculated. The rate of hydrolysis as determined from the continuous increase in fluorescence intensity is equal to the rate of separation of the quencher fatty acid from the substrate. Enzymatic parameters such as Vmax, Km, Kcat, detection limit, Z factors and correlation coefficient were calculated based on the standard definition of those parameters. The data is presented as mean plus standard deviation of three replicates and described below in Example 2 for a comparison of the inventive method and a traditional assay.

human LPL [2] = molecular target: T1, human LPL (Homo sapiens, UniProt P06858); assay: EnzChek assay of human LPL activity in conditioned media; type: biochemical; details: 25 μL conditioned medium mixed with 25 μL human LPL medium, 30 minutes on ice, 0.62 μM EnzChek substrate, p<0.05 (FIG. 6A)
T1 construct: made in house; host or cells: HEK293 (conditioned medium, not purified)
T1 sequence (P06858 28-475): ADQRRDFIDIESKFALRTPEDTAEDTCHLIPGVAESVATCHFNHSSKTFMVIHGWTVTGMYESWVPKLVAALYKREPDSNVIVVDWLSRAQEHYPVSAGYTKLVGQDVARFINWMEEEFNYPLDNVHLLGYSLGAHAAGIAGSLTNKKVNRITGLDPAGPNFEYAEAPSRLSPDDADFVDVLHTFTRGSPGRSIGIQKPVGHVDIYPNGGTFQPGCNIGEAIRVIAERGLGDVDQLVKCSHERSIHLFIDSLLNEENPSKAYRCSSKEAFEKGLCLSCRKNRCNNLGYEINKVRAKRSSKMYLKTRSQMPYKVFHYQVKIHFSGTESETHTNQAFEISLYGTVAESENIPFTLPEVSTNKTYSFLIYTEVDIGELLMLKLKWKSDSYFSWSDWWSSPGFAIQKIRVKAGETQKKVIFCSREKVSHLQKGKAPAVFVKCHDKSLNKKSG
Experimental: Conditioned media was generated by transfection in HEK293 cells as is known. Medium obtained from cells expressing from an empty vector was included as a control for the LPL assay. No lipase activity was detected in the control medium. Pre and post-heparin mouse serum was obtained from blood drawn 5 minutes after the injection of 10 units heparin per kg body weight of the mouse.
To determine whether the conditions of the assay are such that the two forms of the enzyme are maintained and can be differentiated by the biological activity of the lipase, two conditioned media were generated containing human LPL and ANGPTL4 respectively.
(§1) Background substrate hydrolysis was deducted from each measurement. LPL activity is expressed as a percentage of the activity measured in the absence of ANGPTL4. The values are the mean +/− standard deviation in triplicate repeats, p<0.05.

human LPL [3] = molecular target: T1, human LPL; assay: radiolabeled triolein assay of human LPL activity in conditioned media; type: biochemical; details: same samples, radiolabeled triolein assay (FIG. 6B)
Description: as §1

CCCCCCCCCCCCOCC(COC(=O)CCCC(=O)Oc1ccc2nc3ccc(=O)cc-3oc2c1C)OCCCCCCCCCCCC (racemic) [DGGR substrate, 1,2-o-dilauryl-rac-glycero-3-glutaric acid-(6′-methylresorufin) ester]
shelf life / precipitation in the assay buffer [1]: precipitated after only one week
solubility in the assay buffer [1]: limited solubility

[Cl-].[Na+] [NaCl]
reaction rate higher than that without salt (lipoprotein lipase (LPL); highest rate, at 0.15 M (FIG. 5D)): 46%
inhibition of LPL activity (lipoprotein lipase (LPL); up to 2.5 M, apoC-II not used in the assay): no inhibition

[Ca+2] [calcium]
increase of LPL activity (lipoprotein lipase (LPL)): about 6%

heparin [reference compound]
increase of LPL activity (lipoprotein lipase (LPL)): about 6%

B1: ANGPTL4 conditioned media: conditioned medium from transfected HEK293 cells containing ANGPTL4, an endogenous inhibitor of LPL (protein, UniProt Q9BY76 26-406, looked up)
Angiopoietin-related protein 4: GPVQSKSPRFASWDEMNVLAHGLLQLGQGLREHAERTRSQLSALERRLSACGSACQGTEGSTDLPLAPESRVDPEVLHSLQTQLKAQNSRIQQLFHKVAQQQRHLEKQHLRIQHLQSQFGLLDHKHLDHEVAKPARRKRLPEMAQPVDPAHNVSRLHRLPRDCQELFQVGERQSGLFEIQPQGSPPFLVNCKMTSDGGWTVIQRRHDGSVDFNRPWEAYKAGFGDPHGEFWLGLEKVHSITGDRNSRLAVQLRDWDGNAELLQFSVHLGGEDTAYSLQLTAPVAGQLGATTVPPSGLSVPFSTWDQDHDLRRDKNCAKSLSGGWWFGTCSHSNLNGQYFRSIPQQRQKLKKGIFWKTWRGRYYPLQATTMLIQPMAAEAAS
modifications: in conditioned medium of transfected HEK293 cells
effect on LPL activity (human LPL [2]): inhibited the LPL activity
effect on LPL activity (human LPL [3]): comparable result
